The test system of data set [1] is Staphylococcus aureus. Description: Antibacterial activity against Staphylococcus aureus ATCC 25923 after 16 hrs by broth microdilution method. It is filed as functional. The conditions noted are these: ATCC 25923, 16 h.
A short description of data set [2]: Solubility of the compound in water at 40 mg sonicated for 15 mins at 25 degC measured after 5 hrs. It is filed as physicochemical.
Data set [3] deals with Bacillus spizizenii. Description: Antibacterial activity against Bacillus subtilis ATCC 6633 after 16 hrs by broth microdilution method. In kind it is functional. Particulars: ATCC 6633, 16 h. A general note: In broth dilution the organism is exposed to a series of concentrations in liquid medium.
The subject of data set [4] is Escherichia coli. Put plainly: Antibacterial activity against Escherichia coli ATCC 25922 after 16 hrs by broth microdilution method. It is filed as functional. The conditions noted are these: ATCC 25922, 16 h.
A short description of data set [5]: Toxicity against human erythrocytes assessed as hemolysis after 1 hr by spectrophotometric analysis. It is filed as cell-based, Erythrocyte.
The nature of data set [6]: Therapeutic index, ratio of HC50 for human erythrocytes to MIC for Bacillus subtilis ATCC 6633. The conditions noted are these: read-out: TI.
The nature of data set [7]: Therapeutic index, ratio of HC50 for human erythrocytes to MIC for Staphylococcus aureus ATCC 25923. The conditions noted are these: read-out: TI.
Data set [8] can be described thus: Metabolic stability in human plasma assessed as compound remaining after 6 hrs by HPLC analysis. In kind it is ADME, cell-free. Particulars: read-out: Stability.
The nature of data set [9]: Metabolic stability in human plasma assessed as compound remaining after 18 hrs by HPLC analysis. It is filed as ADME, cell-free. The conditions noted are these: read-out: Stability.
The test system of a further data set is MCF7. Description: Cytotoxicity against human MCF7 cells assessed as cell viability at 62.5 ug/ml after 6 hrs by spectroscopic analysis. It is filed as cell-based. Particulars: mcf7, 6 h.
In data set [10] the test system is Staphylococcus aureus. Put plainly: Antibacterial activity against Staphylococcus aureus ATCC 25923 assessed as cell lysis at 4 times MIC after 2 hrs by transmission electron microscopic analysis. It is filed as functional, organism-based.
Data set [11] can be described thus: Selectivity index, ratio of cytotoxicity for human MCF7 cells to MIC for Bacillus subtilis ATCC 6633. In kind it is toxicity, cell-based. Particulars: read-out: Selectivity Index.
For data set [12], the system named is Staphylococcus aureus. Description: Antibacterial activity against Staphylococcus aureus ATCC 25923 at 1 mg/ml up to 18 hrs by broth microdilution method in presence of human plasma. It is filed as functional. The conditions noted are these: ATCC 25923, Plasma.
Data set [13] deals with Staphylococcus aureus. Description: Antibacterial activity against Staphylococcus aureus ATCC 25923 at 1 mg/ml after 3 hrs by broth microdilution method in presence of human plasma. In kind it is functional. Particulars: ATCC 25923, Plasma.
For data set [14], the system named is Staphylococcus aureus. Description: Antibacterial activity against Staphylococcus aureus ATCC 25923 assessed as disruption of cell membrane at 4 times MIC after 2 hrs by DAPI/propidium iodide dye staining based confocal laser scanning microscopic analysis. It is filed as functional, organism-based.
Data set [15] has as its system Staphylococcus aureus. Put plainly: Ratio of MIC for antibacterial activity against Staphylococcus aureus ATCC 25923 in absence of human plasma to MIC for antibacterial activity against Staphylococcus aureus ATCC 25923 in presence of human plasma. In kind it is functional.
For data set [16], the system named is Staphylococcus aureus. Description: Antibacterial activity against Staphylococcus aureus ATCC 25923 after 16 hrs by broth microdilution method in presence of peptide-R3. It is filed as functional. Particulars: ATCC 25923, 16 h.
Data set [17] relates to Bacillus spizizenii. Put plainly: Antibacterial activity against Bacillus subtilis ATCC 6633 after 16 hrs by broth microdilution method in presence of peptide-R3. It is filed as functional. Particulars: ATCC 6633, 16 h.
In data set [18] the test system is Escherichia coli. Put plainly: Antibacterial activity against Escherichia coli ATCC 25922 after 16 hrs by broth microdilution method in presence of peptide-R3. In kind it is functional. The conditions noted are these: ATCC 25922, 16 h.

Broadly, the MIC is the smallest concentration in the dilution series that meets the test's criterion for growth inhibition. Broadly, the solubility is the concentration that dissolves in the medium under given conditions. As a reminder, the HC50 is the concentration giving 50% haemolysis.

Converted amounts (≈) assume the structure as drawn. The source made the active and inactive calls.

With `C=C(C)[C@@H]1CC[C@]2(C(=O)OCc3cn(CC(=O)N[C@@H](CCCNC(=N)N)C(=O)O)nn3)CC[C@]3(C)[C@H](CC[C@@H]4[C@@]5(C)CC[C@H](O)C(C)(C)[C@@H]5CC[C@]43C)[C@@H]12`, the figures for the MIC against Staphylococcus aureus [1], against Bacillus spizizenii [3] and against Escherichia coli [4] were above 166 µM, 83 µM (≈ 62.4 µg/mL) and above 166 µM, respectively. In [2], this compound returned a solubility at 5 h of 1.3 mg/mL (≈ 1.73 mM). In addition, the HC50 at 1 h in data set [5] is 397 µM. In addition, the selectivity ratio in [6] worked out at 5.
Turning to H-GIGKFLKKAKKFGKAFVKILKK-OH, the MIC was 1.5 µM with Staphylococcus aureus [1], 1.5 µM in the data set on Bacillus spizizenii [3] and 3.1 µM against Escherichia coli [4]. Besides, the HC50 at 1 h in [5] worked out at 153 µM. The selectivity ratio in data set [7] and in data set [6] was 100 each time. Further, the remaining at 6 h in [8] was 54%. In [9], the remaining at 18 h is 1%.
On to `C=C(C)[C@@H]1CC[C@]2(C(=O)OCc3cn(CC(=O)N[C@@H](CCCNC(=N)N)C(=O)N[C@@H](CCCNC(=N)N)C(=O)O)nn3)CC[C@]3(C)[C@H](CC[C@@H]4[C@@]5(C)CC[C@H](O)C(C)(C)[C@@H]5CC[C@]43C)[C@@H]12`, for which the MIC in the data set on Staphylococcus aureus [1] was 8.6 µM (≈ 7.81 µg/mL); in the data set on Bacillus spizizenii [3], 4.3 µM (≈ 3.91 µg/mL); against Escherichia coli [4] it was above 138 µM. For the same compound, the solubility at 5 h in data set [2] was found to be 48 mg/mL (≈ 52.9 mM).
As to `C=C(C)[C@@H]1CC[C@]2(C(=O)OCc3cn(CC(=O)N[C@@H](CCCNC(=N)N)C(=O)N[C@@H](CCCNC(=N)N)C(=O)N[C@@H](CCCNC(=N)N)C(=O)O)nn3)CC[C@]3(C)[C@H](CC[C@@H]4[C@@]5(C)CC[C@H](O)C(C)(C)[C@@H]5CC[C@]43C)[C@@H]12`, the minimum inhibitory concentration (MIC) with Staphylococcus aureus [1] stood at 3.7 µM (≈ 3.94 µg/mL); in the data set on Bacillus spizizenii [3], 3.7 µM (≈ 3.94 µg/mL); against Escherichia coli [4], 14.7 µM (≈ 15.6 µg/mL). For the same compound, the concentration in solution in data set [2] (solubility at 5 h) was 98 mg/mL (≈ 92.1 mM). Also, the 50% haemolytic concentration (HC50) at 1 h in data set [5] came to 80 µM. The selectivity ratio in data set [7] and in [6] was 22 in each case.
For the compound `C=C(C)[C@@H]1CC[C@]2(C(=O)OCc3cn(CC(=O)N[C@@H](CCCNC(=N)N)C(=O)N[C@@H](CCCNC(=N)N)C(=O)N[C@@H](CCCNC(=N)N)C(=O)N[C@@H](CCCNC(=N)N)C(=O)N[C@@H](CCCNC(=N)N)C(=O)N[C@@H](CCCNC(=N)N)C(=O)N[C@@H](CCCNC(=N)N)C(=O)N[C@@H](CCCNC(=N)N)C(=O)O)nn3)CC[C@]3(C)[C@H](CC[C@@H]4[C@@]5(C)CC[C@H](O)C(C)(C)[C@@H]5CC[C@]43C)[C@@H]12`, in [2], the solubility at 5 h was 636 mg/mL (≈ 345 mM). Further, in data set [5], the HC50 at 1 h worked out at 55 µM. In addition, the selectivity ratio in data set [7] and in data set [6] was 13 throughout.
On to `C=C(C)[C@@H]1CC[C@]2(C(=O)OCc3cn(CC(=O)N[C@@H](CCCNC(=N)N)C(=O)N[C@@H](CCCNC(=N)N)C(=O)N[C@@H](CCCNC(=N)N)C(=O)N[C@@H](CCCNC(=N)N)C(=O)N[C@@H](CCCNC(=N)N)C(=O)O)nn3)CC[C@]3(C)[C@H](CC[C@@H]4[C@@]5(C)CC[C@H](O)C(C)(C)[C@@H]5CC[C@]43C)[C@@H]12`, for which the MIC was 5.7 µM (≈ 7.85 µg/mL) in the data set on Staphylococcus aureus [1], 2.8 µM (≈ 3.85 µg/mL) in the data set with Bacillus spizizenii [3] and above 91 µM against Escherichia coli [4]. Further, the solubility at 5 h in data set [2] amounted to 220 mg/mL (≈ 160 mM). Besides, in data set [5], the concentration for 50% haemolysis (HC50) at 1 h is 35 µM. In addition, the selectivity ratio in data set [7] came out at 6; in data set [6] it was 12.
As to `C=C(C)[C@@H]1CC[C@]2(C(=O)O)CC[C@]3(C)[C@H](CC[C@@H]4[C@@]5(C)CC[C@H](OC(=O)CCc6cn(CC(=O)N[C@@H](CCCNC(=N)N)C(=O)N[C@@H](CCCNC(=N)N)C(=O)N[C@@H](CCCNC(=N)N)C(=O)O)nn6)C(C)(C)[C@@H]5CC[C@]43C)[C@@H]12`, the Activity result with MCF7 is given as “Non-toxic”. For the same compound, the result with Staphylococcus aureus [10] and in the data set on Staphylococcus aureus [14] was Active. Further, the MIC was 3.5 µM (≈ 3.87 µg/mL) against Staphylococcus aureus [1]; 1.8 µM (≈ 1.99 µg/mL) against Bacillus spizizenii [3]; above 113 µM against Escherichia coli [4]; 3.5 µM with Staphylococcus aureus [12]; 3.5 µM in the data set on Staphylococcus aureus [13]. Further, the concentration for 50% haemolysis (HC50) at 1 h in data set [5] amounted to 215 µM. Also, the selectivity ratio in [7] came out at 62; in data set [6], 125; in data set [11], 20. Moreover, the remaining at 18 h in data set [9] came out at 87%. Moreover, the Ratio with Staphylococcus aureus [15] is reported as 2.
`C=C(C)[C@@H]1CC[C@]2(C(=O)O)CC[C@]3(C)[C@H](CC[C@@H]4[C@@]5(C)CC[C@H](O)C(C)(C)[C@@H]5CC[C@]43C)[C@@H]12` [BETULINIC ACID]: the MIC is 547 µM (≈ 250 µg/mL) with Staphylococcus aureus [1]; 547 µM (≈ 250 µg/mL) against Bacillus spizizenii [3]; above 1100 µM against Escherichia coli [4]; above 531 µM in the data set on Staphylococcus aureus [16]; above 531 µM in the data set with Bacillus spizizenii [17]; above 531 µM in the data set on Escherichia coli [18].
`C[C@H]1[C@H](C)CCC2(C(=O)O)CC[C@]3(C)C(=CC[C@@H]4[C@@]5(C)CC[C@H](OC(=O)CCc6cn(CC(=O)N[C@@H](CCCNC(=N)N)C(=O)N[C@@H](CCCNC(=N)N)C(=O)N[C@@H](CCCNC(=N)N)C(=O)O)nn6)C(C)(C)[C@@H]5CC[C@]43C)[C@H]12` (single isomer, unassigned): the MIC in the data set on Staphylococcus aureus [1] is 7 µM (≈ 7.75 µg/mL); against Bacillus spizizenii [3], 3.5 µM (≈ 3.87 µg/mL); in the data set with Escherichia coli [4], above 113 µM. Moreover, the HC50 at 1 h in [5] is 360 µM. Moreover, the selectivity ratio in data set [7] was determined as 51; in [6], 102.
